# From ChEMBL document CHEMBL4725335, “Deciphering the robustness of pyrazolo-pyridine carboxylate core structure-based compounds for inhibiting α-synuclein in transgenic C. elegans model of Synucleinopathy” (Bioorg Med Chem, 2020)
# Calls of active or inactive are those of the source. No cut-off for these calls is given here.
# Key:
# [1] = target: Alpha-synuclein (Homo sapiens) (UniProt P37840); test: Inhibition of human alpha-synuclein aggregation expressed in transgenic Caenorhabditis elegans NL5901 assessed as decrease in alpha-synuclein expression at 1% after 48 hrs by fluorescence microscopy analysis
# [2] = target: Alpha-synuclein (Homo sapiens) (UniProt P37840); test: Inhibition of human alpha-synuclein aggregation expressed in transgenic Caenorhabditis elegans NL5901 by measuring fluorescence intensity at 1% incubated for 48 hrs by fluorescence microscopy analysis relative to control
SMILES,inhibition [1],fold change (FC) [2],inhibition [2]
CCOC(=O)c1cnc2c(cnn2-c2ccccc2)c1N1CCN(c2cc(=O)[nH]c3ccccc23)CC1,Active,–,14.7%
CCOC(=O)c1cnc2c(cnn2-c2ccccc2)c1N1CCN(S(=O)(=O)c2ccc(NC(C)=O)cc2)CC1,Active,–,17.7%
CCOC(=O)c1cnc2c(cnn2-c2ccccc2)c1N1CCOCC1,Active,–,30.2%
CCOC(=O)c1cnc2c(cnn2-c2ccccc2)c1N1CCCCC1,Active,1.5,47.7%
CCOC(=O)c1cnc2c(cnn2-c2ccc(F)c(F)c2)c1N1CCN(c2ncccc2C#N)CC1,Active,–,13.5%
CCOC(=O)c1cnc2c(cnn2-c2ccccc2)c1Oc1cccc2cccnc12,Active,–,24.4%
CCOC(=O)c1cnc2c(cnn2-c2ccccc2F)c1N1CCN(c2ncccc2C#N)CC1,Active,–,26.1%

# Next, values leading:
inhibition [1],fold change (FC) [2],inhibition [2],SMILES
Active,1.7,39.2%,CCOC(=O)c1cnc2c(cnn2-c2ccccc2)c1N1CCN(c2ccnc3cc(Cl)ccc23)CC1
Active,–,27.3%,CCOC(=O)c1cnc2c(cnn2-c2cccc(C(F)(F)F)c2)c1N1CCN(c2ncccc2C#N)CC1
Active,–,33.1%,CCOC(=O)c1cnc2c(cnn2-c2ccccc2)c1N1CCN(c2ncccc2C#N)CC1
Active,–,14.1%,CCOC(=O)c1cnc2c(cnn2-c2ccccc2)c1N1CCN(c2cc(C(F)(F)F)nc3ncnn23)CC1
Active,–,31.9%,CCOC(=O)c1cnc2c(cnn2-c2ccccc2)c1N1CCN(c2cc(C)nc3ncnn23)CC1
Active,2.4,53%,CCOC(=O)c1cnc2c(cnn2-c2ccccc2)c1N1CCN(C)CC1
